Test results: publication PMC12573178, “Substrate-Guided Development of HDAC11-Selective Inhibitors Featuring α‑Amino Amide Zinc-Binding Groups” (ACS Omega, 2025)
Entries after “also recorded” stand apart in the source; their conditions may differ.

System: HEK293 cells
Assay: Cell permeability / uptake, UPLC-MS of cell lysate
Assay type: cell-based
Details: 40 µM 31, 37 °C overnight, detected by mass spectrometry in cell lysate
Description: H Stability and permeability of 31 […]
stability was performed as described 21. Briefly, 400 µl of human serum or cell lysate from HEK293 cells (1 mg/ml) were incubated at 37 °C with 150 μM of 31 with 5% (v/v) DMSO. Samples of 45 µl were taken out at different time points and quenched with 50 µl of aqueous urea (6 M) and 100 µl of ACN.
Following centrifugation, 2 µl of a 2% (m/v) K 2CO3 solution in H2O and 1.5 µl of a 0.2 M Fmoc-OSu in ACN were added to the samples, which were then shaken at 1000 rpm for two hours at room temperature. This enabled the quantification of the residual amount of the compound via UPLC-UV/VIS at 260 nm. Compound peak areas were integrated. The experiments were performed in triplicate.
After 24h, 7% of 31 remained […]
detectable in cell lysate, and 20 % of 31 were still present in human serum (Figure S 38). […]
shown as mean values relative to the peak intensity at 0 h. Error bars represent the SD of three replicates.
For cell permeability studies, 40 µM of 31 were incubated with HEK293 cells in DMEM medium supplemented with 10 % FCS at 37°C overnight. The cells were harvested, washed extensively with ice-cold PBS and lysed in RIPA buffer. The sample was diluted 1:1 (v/v) with a solution of ACN : H 2O (1:1 )) before analyzing via UPLC-MS. […]
B Mass spectrum of the peak detected at 3.62 […]

## CCCCCCCCCCCCSC[C@@H](N)C(=O)NCCCC[C@@H]1NC(=O)[C@H](CCC(N)=O)NC1=O [Compound 31]
  Uptake by HEK293 cells: uptake of compound 31 by HEK293 cells; also recorded: showed uptake by HEK293 cells
